Assay results taken from patent US20250215029A1 (Recludix Pharma, Inc., priority 2022, published 2025).

Tests used:
[1] = molecular target: T1, Recombinant STAT3 protein (STAT3 (G127-I722)) (Homo sapiens, UniProt P40763); experiment: STAT3 Fluorescence Polarization (FP) Assay; format: binding; settings: STAT3 (G127-I722) 25 nM, probe 5-FAM-GpYLPQTV-NH2 2 nM, 45-minute incubation; read-out: STAT3 (FP assay IC50 class)
T1 construct: Recombinant STAT3 protein (STAT3 (G127-I722))
In short: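 Compounds in serial dilution receive a premix of STAT3 (G127-I722, 25 nM) and fluorescent phosphotyrosine peptide 5-FAM-GpYLPQTV-NH2 (2 nM) at pH 7.4. After 45 min at room temperature, FP is measured and IC50 derived by nonlinear regression.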

[2] = molecular target: T2, Recombinant STAT6 protein (STAT6 (W123-T658)) (Homo sapiens, UniProt P42226); experiment: STAT6 Fluorescence Polarization (FP) Assay; format: binding; settings: STAT6 (W123-T658) 250 nM, probe 5-FAM-Ap[…]-NH2 2 nM, 45-minute incubation; read-out: STAT6 (FP assay IC50 class)
T2 construct: Recombinant STAT6 protein (STAT6 (W123-T658))
T2 sequence (P42226 123-658): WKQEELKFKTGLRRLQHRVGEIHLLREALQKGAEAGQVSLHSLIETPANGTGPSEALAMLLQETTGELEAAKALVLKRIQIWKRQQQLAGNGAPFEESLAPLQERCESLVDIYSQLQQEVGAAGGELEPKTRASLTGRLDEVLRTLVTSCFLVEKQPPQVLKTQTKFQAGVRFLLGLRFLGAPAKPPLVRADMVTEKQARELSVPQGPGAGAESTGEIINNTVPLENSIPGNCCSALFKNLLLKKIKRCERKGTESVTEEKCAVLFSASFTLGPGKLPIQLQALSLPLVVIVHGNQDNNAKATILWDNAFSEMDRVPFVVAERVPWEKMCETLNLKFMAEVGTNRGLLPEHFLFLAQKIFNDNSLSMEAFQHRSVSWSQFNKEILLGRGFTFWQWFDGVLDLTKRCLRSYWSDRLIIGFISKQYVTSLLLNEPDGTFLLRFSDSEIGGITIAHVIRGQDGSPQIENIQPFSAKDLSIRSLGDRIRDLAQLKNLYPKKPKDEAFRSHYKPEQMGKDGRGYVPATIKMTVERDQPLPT
In short: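 Protein-probe mix (250 nM STAT6 W123-T658, 2 nM 5-FAM-pTyr peptide) in 10 mM HEPES pH 7.4, 50 mM NaCl, 1 mM EDTA, 0.05% Tween 20, 2 mM DTT; added to compound dilution series, 1% DMSO final; 45 min RT; FP read; IC50 via nonlinear regression.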

T1 sequence (P40763 127-722): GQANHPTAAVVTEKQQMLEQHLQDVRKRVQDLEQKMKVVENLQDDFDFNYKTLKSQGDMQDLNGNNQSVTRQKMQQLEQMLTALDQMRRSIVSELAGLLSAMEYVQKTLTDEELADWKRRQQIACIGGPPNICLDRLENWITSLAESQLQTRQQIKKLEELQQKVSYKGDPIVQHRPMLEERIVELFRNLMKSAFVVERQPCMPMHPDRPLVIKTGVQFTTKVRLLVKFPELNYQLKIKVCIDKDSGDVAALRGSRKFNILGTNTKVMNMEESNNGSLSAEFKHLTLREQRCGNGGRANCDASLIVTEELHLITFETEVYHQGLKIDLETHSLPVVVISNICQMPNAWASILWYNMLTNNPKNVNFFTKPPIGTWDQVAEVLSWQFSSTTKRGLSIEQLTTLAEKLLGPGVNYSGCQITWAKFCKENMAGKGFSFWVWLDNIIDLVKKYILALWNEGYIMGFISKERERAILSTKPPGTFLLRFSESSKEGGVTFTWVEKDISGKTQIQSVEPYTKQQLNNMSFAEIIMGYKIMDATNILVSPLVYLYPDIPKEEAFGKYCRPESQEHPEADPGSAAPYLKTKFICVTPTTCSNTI

SMILES	IC50 [1]	IC50 [2]
CC[C@H]1CC[C@H](NC(=O)c2cc3cc([C@H](F)P(=O)(O)O)ccc3s2)C(=O)N2[C@H](CC[C@H]2C(=O)N2CC(c3cnccc3N3CCC3)C2)C1 [Compound 938, ((R)-(2-(((3S,6S,9S,10aR)-3-(3-(4-(azetidin-1-yl)pyridin-3-yl)azetidine-1-carbonyl)-9-ethyl-5-oxodecahydropyrrolo [1,2-a]azocin-6-yl)carbamoyl)benzo [b]thiophen-5-yl)fluoromethyl) phosphonic acid]	< 100 nM	300 to 3000 nM
CC(C)c1ccncc1C1CN(C(=O)[C@@H]2CC[C@@H]3CCC[C@H](NC(=O)c4cc5cc(C(F)P(=O)(O)O)ccc5s4)C(=O)N32)C1 (stereo partly drawn) [Compound 939, (fluoro(2-(((3S,6S,9aS)-3-(3-(4-isopropylpyridin-3-yl)azetidine-1-carbonyl)-5-oxooctahydro-1H-pyrrolo[1,2-a]azepin-6-yl)carbamoyl)benzo [b]thiophen-5-yl)methyl) phosphonic acid]	< 100 nM	3000 to 30000 nM
CC(NC(=O)[C@@H]1CC[C@@H]2CCCC[C@H](NC(=O)c3cc4cc(C(F)(F)P(=O)(O)O)ccc4s3)C(=O)N21)c1n[nH]c2ncccc12 (stereo partly drawn) [Compound 1107, ((2-(((3S,6S,10aS)-3-((1-(1H-pyrazolo[3,4-b]pyridin-3-yl)ethyl)carbamoyl)-5-oxodecahydropyrrolo[1,2-a]azocin-6-yl)carbamoyl)benzo[b]thiophen-5-yl)difluoromethyl)phosphonic acid]	100 to 1000 nM	300 to 3000 nM
O=C(N[C@H]1CCCC[C@H]2CC[C@@H](C(=O)NCc3cnc4[nH]ncc4c3)N2C1=O)c1cc2cc(C(F)(F)P(=O)(O)O)ccc2s1 [Compound 1108, ((2-(((3S,6S,10aS)-3-(((1H-pyrazolo[3,4-b]pyridin-5-yl)methyl)carbamoyl)-5-oxodecahydropyrrolo[1,2-a]azocin-6-yl)carbamoyl)benzo[b]thiophen-5-yl)difluoromethyl)phosphonic acid]	100 to 1000 nM	3000 to 30000 nM
Cc1cc(C#N)ccc1C1CN(C(=O)[C@@H]2CC[C@@H]3CCCC[C@H](NC(=O)c4cc5cc(C(F)(F)P(=O)(O)O)ccc5s4)C(=O)N32)C1 [Compound 1110, ((2-(((3S,6S,10aS)-3-(3-(4-cyano-2-methylphenyl)azetidine-1-carbonyl)-5-oxodecahydropyrrolo[1,2-a]azocin-6-yl)carbamoyl)benzo[b]thiophen-5-yl)difluoromethyl)phosphonic acid]	< 100 nM	300 to 3000 nM
O=C(N[C@H]1CCCC[C@H]2CC[C@@H](C(=O)NCc3cnc4[nH]cnc4c3)N2C1=O)c1cc2cc(C(F)(F)P(=O)(O)O)ccc2s1 [Compound 1112, ((2-(((3S,6S,10aS)-3-(((3H-imidazo[4,5-b]pyridin-6-yl)methyl)carbamoyl)-5-oxodecahydropyrrolo[1,2-a]azocin-6-yl)carbamoyl)benzo[b]thiophen-5-yl)difluoromethyl)phosphonic acid]	< 100 nM	300 to 3000 nM
CC(NC(=O)[C@@H]1CC[C@@H]2CCCC[C@H](NC(=O)c3cc4cc(C(F)(F)P(=O)(O)O)ccc4s3)C(=O)N21)c1c[nH]c2ncccc12 (stereo partly drawn) [Compound 1113, ((2-(((3S,6S,10aS)-3-((1-(1H-pyrrolo[2,3-b]pyridin-3-yl)ethyl)carbamoyl)-5-oxodecahydropyrrolo[1,2-a]azocin-6-yl)carbamoyl)benzo[b]thiophen-5-yl)difluoromethyl)phosphonic acid]	100 to 1000 nM	300 to 3000 nM
O=C(N[C@H]1CCCC[C@H]2CC[C@@H](C(=O)NCc3cnc4[nH]ccc4c3)N2C1=O)c1cc2cc(C(F)(F)P(=O)(O)O)ccc2s1 [Compound 1114, ((2-(((3S,6S,10aS)-3-(((1H-pyrrolo[2,3-b]pyridin-5-yl)methyl)carbamoyl)-5-oxodecahydropyrrolo[1,2-a]azocin-6-yl)carbamoyl)benzo[b]thiophen-5-yl)difluoromethyl)phosphonic acid]	100 to 1000 nM	300 to 3000 nM
O=C(N[C@H]1CCC[C@H]2CC[C@@H](C(=O)NCc3ccc4[nH]cnc4c3)N2C1=O)c1cc2cc(C(F)(F)P(=O)(O)O)ccc2s1 [Compound 1115, ((2-(((3S,6S,9aS)-3-(((1H-benzo[d]imidazol-5-yl)methyl)carbamoyl)-5-oxooctahydro-1H-pyrrolo[1,2-a]azepin-6-yl)carbamoyl)benzo[b]thiophen-5-yl)difluoromethyl)phosphonic acid]	< 100 nM	300 to 3000 nM
Cc1nc2cc(CNC(=O)[C@@H]3CC[C@@H]4CCC[C@H](NC(=O)c5cc6cc(C(F)(F)P(=O)(O)O)ccc6s5)C(=O)N43)ccc2[nH]1 [Compound 1116, (difluoro(2-(((3S,6S,9aS)-3-(((2-methyl-1H-benzo[d]imidazol-5-yl)methyl)carbamoyl)-5-oxooctahydro-1H-pyrrolo[1,2-a]azepin-6-yl)carbamoyl)benzo[b]thiophen-5-yl)methyl)phosphonic acid]	100 to 1000 nM	3000 to 30000 nM
O=C(N[C@H]1CCC[C@H]2CC[C@@H](C(=O)NCc3ccc4[nH]c(=O)[nH]c4c3)N2C1=O)c1cc2cc(C(F)(F)P(=O)(O)O)ccc2s1 [Compound 1117, (difluoro(2-(((3S,6S,9aS)-5-oxo-3-(((2-oxo-2,3-dihydro-1H-benzo[d]imidazol-5-yl)methyl)carbamoyl)octahydro-1H-pyrrolo[1,2-a]azepin-6-yl)carbamoyl)benzo[b]thiophen-5-yl)methyl)phosphonic acid]	100 to 1000 nM	300 to 3000 nM
O=C(N[C@H]1CCC[C@H]2CC[C@@H](C(=O)NCc3cnc4[nH]cnc4c3)N2C1=O)c1cc2cc(C(F)(F)P(=O)(O)O)ccc2s1 [Compound 1118, ((2-(((3S,6S,9aS)-3-(((3H-imidazo[4,5-b]pyridin-6-yl)methyl)carbamoyl)-5-oxooctahydro-1H-pyrrolo[1,2-a]azepin-6-yl)carbamoyl)benzo[b]thiophen-5-yl)difluoromethyl)phosphonic acid]	< 100 nM	300 to 3000 nM
Cn1cnc2cc(CNC(=O)[C@@H]3CC[C@@H]4CCC[C@H](NC(=O)c5cc6cc(C(F)(F)P(=O)(O)O)ccc6s5)C(=O)N43)cnc21 [Compound 1119, (difluoro(2-(((3S,6S,9aS)-3-(((3-methyl-3H-imidazo[4,5-b]pyridin-6-yl)methyl)carbamoyl)-5-oxooctahydro-1H-pyrrolo[1,2-a]azepin-6-yl)carbamoyl)benzo[b]thiophen-5-yl)methyl)phosphonic acid]	100 to 1000 nM	300 to 3000 nM
Cn1cnc2ncc(CNC(=O)[C@@H]3CC[C@@H]4CCC[C@H](NC(=O)c5cc6cc(C(F)(F)P(=O)(O)O)ccc6s5)C(=O)N43)cc21 [Compound 1120, (difluoro(2-(((3S,6S,9aS)-3-(((1-methyl-1H-imidazo[4,5-b]pyridin-6-yl)methyl)carbamoyl)-5-oxooctahydro-1H-pyrrolo[1,2-a]azepin-6-yl)carbamoyl)benzo[b]thiophen-5-yl)methyl)phosphonic acid]	100 to 1000 nM	300 to 3000 nM
COCC(NC(=O)[C@@H]1CC[C@@H]2CCCC[C@H](NC(=O)c3cc4cc(C(F)(F)P(=O)(O)O)ccc4s3)C(=O)N21)c1c[nH]c2ncccc12 (stereo partly drawn) [Compound 1121, (difluoro(2-(((3S,6S,10aS)-3-((2-methoxy-1-(1H-pyrrolo[2,3-b]pyridin-3-yl)ethyl)carbamoyl)-5-oxodecahydropyrrolo[1,2-a]azocin-6-yl)carbamoyl)benzo[b]thiophen-5-yl)methyl)phosphonic acid]	1000 to 10000 nM	3000 to 30000 nM
NC(=O)Cc1cc(-c2ccccc2)ccc1NC(=O)[C@@H]1CCC2CCC[C@H](NC(=O)c3cc4cc(C(F)(F)P(=O)(O)O)ccc4s3)C(=O)N21 (stereo partly drawn) [Compound 1122, ((2-(((35,6S)-3-((3-(2-amino-2-oxoethyl)-[1,1′-biphenyl]-4-yl)carbamoyl)-5-oxooctahydro-1H-pyrrolo[1,2-a]azepin-6-yl)carbamoyl)benzo[b]thiophen-5-yl)difluoromethyl)phosphonic acid]	100 to 1000 nM	3000 to 30000 nM
Cn1cc(C2CN(C(=O)[C@@H]3CC[C@@H]4CCC[C@H](NC(=O)c5cc6cc(C(F)(F)P(=O)(O)O)ccc6s5)C(=O)N43)CCO2)cn1 (stereo partly drawn) [Compound 1123]	1000 to 10000 nM	300 to 3000 nM
O=C(N[C@H]1CCC[C@H]2CC[C@@H](C(=O)N3CCOC(c4cccnc4)C3)N2C1=O)c1cc2cc(C(F)(F)P(=O)(O)O)ccc2s1 (stereo partly drawn) [Compound 1124, (difluoro(2-(((3S,6S,9aS)-5-oxo-3-(2-(pyridin-3-yl)morpholine-4-carbonyl)octahydro-1H-pyrrolo[1,2-a]azepin-6-yl)carbamoyl)benzo[b]thiophen-5-yl)methyl)phosphonic acid]	100 to 1000 nM	≤ 300 nM
